# From article PMC6274369, “Novel Anthranilamide-Based FXa Inhibitors: Drug Design, Synthesis and Biological Evaluation” (Molecules, 2016)
# pIC50, pKi: −log10 of the molar value.
# Assays:
# [1] = target: T1, human FXa (Homo sapiens, UniProt P00742); assay: Inhibition of FXa in vitro (chromogenic substrate CS-11(22)); assay type: biochemical; conditions: for pIC50: chromogenic substrate, 37 °C, pH 7.4; for pKi: Km = 2.4
# T1 construct: purchased Hyphen BioMed, Paris, France
# Description: The inhibition of FXa was measured using human FXa (Hyphen BioMed, Paris, France) and chromogenic substrate CS-11(22) (Hyphen BioMed, Paris, France) in 384-well microtiter plates at room temperature. […] 2 μL of FXa (56.8 nM), 16 μL of Tris buffer (adjust to pH 7.4 with HCl containing 0.3 M NaCl and 50 mM Tris) and 3 μL of test compound were added to the well, respectively. The negative control was composed of the same mixed solutions except replacing test compound with DMSO. […] After incubated at 37 °C for 5 min, 8 μL of FXa substrate solution (3.5 mM) was added and then incubated at 37 °C for 25 min. The FXa activity was measured at 405 nm using a SpectraMax M5 (Molecular Devices, Sunnyvale, CA, USA). The IC50 was calculated by the software named SPSS (IBM, North Castle, NY, USA) and the Probit function in it.
# [2] = target: T2, human FIIa (Homo sapiens, UniProt P00734); assay: Thrombin inhibition in vitro (chromogenic substrate CS-01(38)); assay type: biochemical; conditions: tested 10 μM to 100 μM
# T2 construct: purchased Hyphen BioMed, Paris, France
# Description: The inhibition of thrombin was measured using human FIIa (Hyphen BioMed, Paris, France) and chromogenic substrate CS-01(38) (Hyphen BioMed, Paris, France) in 384-well microtiter plates at room temperature. […] 2 μL of FIIa (3 NIH/mL), 20 μL of Tris buffer (adjust to pH 7.4 with HCl) containing 0.3 M NaCl and 50 mM Tris and 2 μL of test compound were added to the well, respectively. The negative control was composed of the same mixed solutions except replacing test compound with DMSO. The positive control was composed of the same mixed solutions except replacing test compound with Rivaroxaban. After incubated at 37 °C for 5 min, 3 μL of FIIa substrate solution (4 mM) was added and then incubated at 37 °C for 25 min. The FIIa activity was measured at 405 nm using a SpectraMax M5 (Molecular Devices).
# [3] = system: human plasma; assay: Prothrombin time (PT) assay in human plasma; assay type: biochemical; conditions: concentration doubling prothrombin time
# Description: (§1) A commercially available automatic coagulometer (Steellex Science Instrument Co., Ltd., Beijing, China) was employed to measure PT. The clotting times were also measured using the instrument itself, in accordance with the manufacturer’s instructions. Increasing concentrations of inhibitor or solvent were added to rat (Sprague-Dawley rats, Shanchuanhong Experimental Animals Co., Ltd., Tianjin, China) and human plasma and incubated for 3 min at 37 °C. Prothrombin time (PT) was determined by automatic coagulometer.
# [4] = system: rat plasma; assay: Prothrombin time (PT) assay in rat plasma; assay type: biochemical; conditions: concentration doubling prothrombin time
# Description: as §1
# [5] = system: thrombin; set-up: method as in PMID 16305517; conditions: read-out: selectivity against thrombin (IC50); cited from earlier work
# [6] = system: FXa; conditions: Figure 4, design basis; no reference given; cited from earlier work
# T1 sequence (P00742 235-488 limits assumed): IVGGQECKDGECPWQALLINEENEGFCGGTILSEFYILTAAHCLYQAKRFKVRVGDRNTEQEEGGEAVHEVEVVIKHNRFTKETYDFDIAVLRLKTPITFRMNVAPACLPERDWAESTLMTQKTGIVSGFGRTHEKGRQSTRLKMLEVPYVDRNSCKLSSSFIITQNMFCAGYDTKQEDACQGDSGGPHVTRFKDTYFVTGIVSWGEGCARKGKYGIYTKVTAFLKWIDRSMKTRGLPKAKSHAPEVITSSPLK
# T1 sequence (P00742 41-179 partner limits assumed): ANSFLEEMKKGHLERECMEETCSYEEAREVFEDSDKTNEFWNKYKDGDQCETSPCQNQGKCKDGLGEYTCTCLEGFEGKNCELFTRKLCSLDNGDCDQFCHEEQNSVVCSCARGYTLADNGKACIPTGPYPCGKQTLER
SMILES,pIC50 [1],also measured
"O=C(Nc1ccc(Cl)cc1C(=O)Nc1ccc(-n2ccccc2=O)cc1)c1ccc(Cl)cc1 [Compound 1f, 5-Chloro-2-(4-chlorobenzamido)-N-(4-(2-oxopyridin-1(2H)-yl)phenyl)benzamide]",6.24,–
"O=C(Nc1ccccc1C(=O)Nc1ccc(-n2ccccc2=O)cc1)c1ccc(F)cc1 [Compound 1b, 2-(4-Fluorobenzamido)-N-(4-(2-oxopyridin-1(2H)-yl)phenyl)benzamide]",< 6.00,–
"Cc1ccc(NC(=O)c2ccc(F)cc2)c(C(=O)Nc2ccc(-n3ccccc3=O)cc2)c1 [Compound 1h, 2-(4-Fluorobenzamido)-5-methyl-N-(4-(2-oxopyridin-1(2H)-yl)phenyl)benzamide]",< 6.00,–
"O=C(Nc1ccccc1C(=O)Nc1ccc(N2CCOCC2=O)cc1)c1ccc(Cl)s1 [Compound 1m, 5-Chloro-N-(2-((4-(3-oxomorpholino)phenyl)carbamoyl)phenyl)thiophene-2-carboxamide]",6.50,–
"O=C(Nc1ccc(Cl)cc1C(=O)Nc1ccc(N2CCOCC2=O)cc1)c1ccc(Cl)s1 [Compound 1p, 5-Chloro-N-(4-chloro-2-((4-(3-oxomorpholino)phenyl)carbamoyl)phenyl)thiophene-2-carboxamide]",6.96,–
"Cc1ccc(NC(=O)c2ccc(Cl)cc2)c(C(=O)Nc2ccc(-n3ccccc3=O)cc2)c1 [Compound 1i, 2-(4-Chlorobenzamido)-5-methyl-N-(4-(2-oxopyridin-1(2H)-yl)phenyl)benzamide]",6.29,–
"Cc1ccc(NC(=O)c2ccc(Cl)s2)c(C(=O)Nc2ccc(N3CCOCC3=O)cc2)c1 [Compound 1s, 5-Chloro-N-(4-methyl-2-((4-(3-oxomorpholino)phenyl)carbamoyl)phenyl)thiophene-2-carboxamide]",7.15,pKi [1]: 7.26; pIC50 [2]: < 5.00; 2 × PT (μM) (Human) [3]: 10.4 µM; 2 × PT (μM) (Rat) [4]: 24.2 µM
"Cc1cccc(C(=O)Nc2ccc(N3CCOCC3=O)cc2)c1NC(=O)c1ccc(Cl)s1 [Compound 1v, 5-Chloro-N-(2-methyl-6-((4-(3-oxomorpholino)phenyl)carbamoyl)phenyl)thiophene-2-carboxamide]",< 6.00,–
"Cc1cccc(C(=O)Nc2ccc(-n3ccccc3=O)cc2)c1NC(=O)c1ccc(F)cc1 [Compound 1k, 2-(4-Fluorobenzamido)-3-methyl-N-(4-(2-oxopyridin-1(2H)-yl)phenyl)benzamide]",< 6.00,–
"O=C(NC[C@H]1CN(c2ccc(N3CCOCC3=O)cc2)C(=O)O1)c1ccc(Cl)s1 [Rivaroxaban, reference compound]",–,2 × PT (μM) (Human) [3]: 0.2 µM; 2 × PT (μM) (Rat) [4]: 0.3 µM; pIC50 [5]: < 5.16; pIC50 [6]: […]
"O=C(Nc1ccccc1C(=O)Nc1ccc(N2CCOCC2=O)cc1)c1ccc(Cl)cc1 [Compound 1o, 2-(4-Chlorobenzamido)-N-(4-(3-oxomorpholino)phenyl)benzamide]",6.36,–
"O=C(Nc1ccc(Cl)cc1C(=O)Nc1ccc(N2CCOCC2=O)cc1)c1ccc(Cl)cc1 [Compound 1r, 5-Chloro-2-(4-chlorobenzamido)-N-(4-(3-oxomorpholino)phenyl)benzamide]",6.02,–
"Cc1cccc(C(=O)Nc2ccc(N3CCOCC3=O)cc2)c1NC(=O)c1ccc(F)cc1 [Compound 1w, 2-(4-Fluorobenzamido)-3-methyl-N-(4-(3-oxomorpholino)phenyl)benzamide]",< 6.00,–
"Cc1cccc(C(=O)Nc2ccc(-n3ccccc3=O)cc2)c1NC(=O)c1ccc(Cl)cc1 [Compound 1l, 2-(4-Chlorobenzamido)-3-methyl-N-(4-(2-oxopyridin-1(2H)-yl)phenyl)benzamide]",< 6.00,–
"O=C(Nc1ccccc1C(=O)Nc1ccc(-n2ccccc2=O)cc1)c1ccc(Cl)s1 [Compound 1a, 5-Chloro-N-(2-((4-(2-oxopyridin-1(2H)-yl)phenyl)carbamoyl)phenyl)thiophene-2-carboxamide]",7.52,pKi [1]: 7.66; pIC50 [2]: < 5.00
"Cc1ccc(NC(=O)c2ccc(Cl)cc2)c(C(=O)Nc2ccc(N3CCOCC3=O)cc2)c1 [Compound 1u, 2-(4-Chlorobenzamido)-5-methyl-N-(4-(3-oxomorpholino)phenyl)benzamide]",< 6.00,–
"Cc1cccc(C(=O)Nc2ccc(N3CCOCC3=O)cc2)c1NC(=O)c1ccc(Cl)cc1 [Compound 1x, 2-(4-Chlorobenzamido)-3-methyl-N-(4-(3-oxomorpholino)phenyl)benzamide]",< 6.00,–
"O=C(Nc1ccccc1C(=O)Nc1ccc(-n2ccccc2=O)cc1)c1ccc(Cl)cc1 [Compound 1c, 2-(4-Chlorobenzamido)-N-(4-(2-oxopyridin-1(2H)-yl)phenyl)benzamide]",6.70,–
"Cc1ccc(NC(=O)c2ccc(F)cc2)c(C(=O)Nc2ccc(N3CCOCC3=O)cc2)c1 [Compound 1t, 2-(4-Fluorobenzamido)-5-methyl-N-(4-(3-oxomorpholino)phenyl)benzamide]",< 6.00,–
"Cc1ccc(NC(=O)c2ccc(Cl)s2)c(C(=O)Nc2ccc(-n3ccccc3=O)cc2)c1 [Compound 1g, 5-Chloro-N-(4-methyl-2-((4-(2-oxopyridin-1(2H)-yl)phenyl)carbamoyl)phenyl)thiophene-2-carboxami-de]",7.60,pKi [1]: 7.79; pIC50 [2]: < 5.00; 2 × PT (μM) (Human) [3]: 12.8 µM; 2 × PT (μM) (Rat) [4]: 19.7 µM
"O=C(Nc1ccc(Cl)cc1C(=O)Nc1ccc(-n2ccccc2=O)cc1)c1ccc(Cl)s1 [Compound 1d, 5-Chloro-N-(4-chloro-2-((4-(2-oxopyridin-1(2H)-yl)phenyl)carbamoyl)phenyl)thiophene-2-carboxamide]",6.37,–
"O=C(Nc1ccccc1C(=O)Nc1ccc(N2CCOCC2=O)cc1)c1ccc(F)cc1 [Compound 1n, 2-(4-Fluorobenzamido)-N-(4-(3-oxomorpholino)phenyl)benzamide]",< 6.00,–
"O=C(Nc1ccc(Cl)cc1C(=O)Nc1ccc(-n2ccccc2=O)cc1)c1ccc(F)cc1 [Compound 1e, 5-Chloro-2-(4-fluorobenzamido)-N-(4-(2-oxopyridin-1(2H)-yl)phenyl)benzamide]",< 6.00,–
"O=C(Nc1ccc(Cl)cc1C(=O)Nc1ccc(N2CCOCC2=O)cc1)c1ccc(F)cc1 [Compound 1q, 5-Chloro-2-(4-fluorobenzamido)-N-(4-(3-oxomorpholino)phenyl)benzamide]",< 6.00,–
"Cc1cccc(C(=O)Nc2ccc(-n3ccccc3=O)cc2)c1NC(=O)c1ccc(Cl)s1 [Compound 1j, 5-Chloro-N-(2-methyl-6-((4-(2-oxopyridin-1(2H)-yl)phenyl)carbamoyl)phenyl)thiophene-2-carboxami-de]",< 6.00,–
COc1ccc(C(=O)Nc2cccc(O)c2NC(=O)c2ccc(N3CCCN(C)CC3)cc2)cc1 [Darexaban],–,pIC50 [6]: 7.26
